Several values for one entry are separate records, joined by “and”; a condition that tells them apart may be missing. Equal entries are not always repeated.

The target of experiment [1] is Histamine H1 receptor (Homo sapiens, UniProt P35367).
Experiment [2] concerns the target Histamine H1 receptor (Cavia porcellus, UniProt P31389).

Histamine H1 receptor (Cavia porcellus, UniProt P31389), sequence (P31389 whole entry): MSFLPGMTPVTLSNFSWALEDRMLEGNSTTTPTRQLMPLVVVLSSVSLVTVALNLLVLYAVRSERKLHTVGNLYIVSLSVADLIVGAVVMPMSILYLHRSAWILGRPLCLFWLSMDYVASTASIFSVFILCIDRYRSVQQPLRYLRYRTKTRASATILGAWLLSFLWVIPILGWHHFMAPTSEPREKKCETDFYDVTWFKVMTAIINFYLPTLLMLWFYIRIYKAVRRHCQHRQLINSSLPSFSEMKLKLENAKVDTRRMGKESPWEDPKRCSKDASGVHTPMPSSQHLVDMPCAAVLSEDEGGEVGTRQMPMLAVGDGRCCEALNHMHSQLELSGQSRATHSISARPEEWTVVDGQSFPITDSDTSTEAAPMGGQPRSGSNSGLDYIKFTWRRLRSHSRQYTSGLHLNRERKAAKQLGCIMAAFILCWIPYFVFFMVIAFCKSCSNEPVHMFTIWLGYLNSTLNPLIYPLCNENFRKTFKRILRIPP
Histamine H1 receptor (Homo sapiens, UniProt P35367), sequence (P35367 whole entry): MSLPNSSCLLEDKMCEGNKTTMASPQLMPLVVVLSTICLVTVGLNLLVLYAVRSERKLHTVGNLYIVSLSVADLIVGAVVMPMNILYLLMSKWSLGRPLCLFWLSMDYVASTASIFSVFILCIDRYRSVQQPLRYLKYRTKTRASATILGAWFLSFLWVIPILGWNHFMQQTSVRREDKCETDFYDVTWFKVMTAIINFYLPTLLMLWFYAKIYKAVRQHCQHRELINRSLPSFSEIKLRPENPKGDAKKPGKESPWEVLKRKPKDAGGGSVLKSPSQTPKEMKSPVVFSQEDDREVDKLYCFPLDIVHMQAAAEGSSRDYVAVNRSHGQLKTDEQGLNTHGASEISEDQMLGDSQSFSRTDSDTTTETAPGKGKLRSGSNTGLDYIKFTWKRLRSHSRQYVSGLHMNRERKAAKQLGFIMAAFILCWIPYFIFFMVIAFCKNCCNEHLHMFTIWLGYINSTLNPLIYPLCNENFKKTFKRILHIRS

`N=C(NCCCc1c[nH]cn1)NC(=O)CCCC1CCCCC1` [UR-AK64]: the results for the Ki in experiment [1] and in experiment [2] were 0.99 µM and 0.35 µM, respectively. Regarding `NC(=NCCCc1cnc[nH]1)NC(=O)CC1CCCCC1` [UR-AK62], the figures for the Ki in experiment [1] and in experiment [2] were 7 µM and 4.7 µM, respectively. In the case of `CC(C(=O)NC(N)=NCCCc1cnc[nH]1)C1CCCCC1` (configuration not stated) [UR-AK59], the Ki – broadly, a measure of affinity in units of concentration, obtained from inhibition or displacement – in experiment [1] was 6 µM and 2.3 µM; in experiment [2], 11 µM. As for `N=C(NCCCc1c[nH]cn1)NC(=O)CCCCc1ccccc1` [UR-AK22], the results for the Ki in experiment [1] and in experiment [2] were 2.9 µM and 0.44 µM, respectively. For the compound `N=C(NCCCc1c[nH]cn1)NC(=O)CCCc1ccccc1` [UR-AK67], the Ki in experiment [1] was 14 µM; in experiment [2], 2.2 µM. As to `CC(CC(=O)NC(N)=NCCCc1cnc[nH]1)C1CCCCC1` (configuration not stated) [UR-AK24], the Ki in experiment [2] is 2.6 µM and 1.6 µM. Regarding `CC(C(=O)NC(N)=NCCCc1cnc[nH]1)c1ccccc1` (configuration not stated) [UR-AK68], in experiment [1], the affinity, expressed as Ki, was 3.5 µM.

The values are drawn from BindingDB's records for doi:10.1124/jpet.106.102897 (University of Kansas, 2006).
